Experiments:
[1] = system: modified luciferase; assay: Luciferase expression in liver, lung, spleen and femur 6 hours after intravenous administration to mice; type: in vivo; settings: 6 hours after intravenous 0.5 mpk, mice
Procedure: The efficacy of the nanoparticle compositions presented in Table 1A was further evaluated by measuring the expression of modified luciferase in the liver, lung, spleen, and femur upon administration of a given composition. Formulations were administered intravenously to mice (n=3) at a dosage of 0.5 mpk and bioluminescence measured after 6 hours. The standard MC3 formulation and a PBS control were also tested. […] Flux in the liver was lowest for compositions including Compounds 58, 59, 137, and 141. Flux in the spleen was highest for compositions including Compounds 4, 7, 33, 34, 48, 53, 108, 129, 130, and 148, and lowest for compositions including Compounds 9, 59, 124, and 141.

[2] = Encapsulation efficiency of RNA in nanoparticle compositions (RIBOGREEN assay); type: physicochemical
Procedure: For nanoparticle compositions including an RNA, a QUANT-IT™ RIBOGREEN® RNA assay (Invitrogen Corporation Carlsbad, Calif.) can be used to evaluate the encapsulation of an RNA by the nanoparticle composition. The samples are diluted to a concentration of approximately 5 μg/mL, in a TE buffer solution (10 mM Tris-HCl, 1 mM EDTA, pH 7.5). 50 μL of the diluted samples are transferred to a polystyrene 96 well plate and either 50 μL of TE buffer or 50 μL of a 2% Triton X-100 solution is added to the wells. The plate is incubated at a temperature of 37° C. for 15 minutes. The RIBOGREEN® reagent is diluted 1:100 in TE buffer, and 100 μL of this solution is added to each well. The fluorescence intensity can be measured using a fluorescence plate reader (Wallac Victor 1420 Multilabel Counter; Perkin Elmer, Waltham, Mass.) at an excitation wavelength of, for example, about 480 nm and an emission wavelength of, for example, about 520 nm. The fluorescence values of the reagent blank are subtracted from that of each of the samples and the percentage of free RNA is determined by dividing the fluorescence intensity of the intact sample (without addition of Triton X-100) by the fluorescence value of the disrupted sample (caused by the addition of Triton X-100).
(§1) Initial studies were performed to compare the delivery efficiency of nanoparticle compositions including various compounds according to Formula (I), (IA), (IB), (II), (IIa), (IIb), (IIc), (IId), (IIe), (IIf), (IIg), or (III). The cationic lipid MC3 is a current standard in the art. Accordingly, the standard MC3 formulation including about 50 mol % MC3, about 10 mol % DSPC, about 38.5 mol % cholesterol, and about 1.5 mol % PEG-DMG was used as a basis for this study. Nanoparticle compositions including DSPC as a phospholipid, cholesterol as a structural lipid, PEG-DMG as a PEG lipid, an RNA, and a compound according to Formula (I), (IA), (IB), (II), (IIa), (IIb), (IIc), (IId), (IIe), (IIf), (IIg), or (III) selected from Compounds 1-159, 168-170, and 173-175 were prepared according to or via methods similar to those described in Examples 1 and 2. The ratios of the lipids were 50:10:38.5:1.5 mol % for the lipid according to Formula (I), (IA), (IB), (II), (IIa), (IIb), (IIc), (IId), (IIe), (IIf), (IIg), or (III):DSPC:cholesterol:PEG-DMG. The RNA used was an mRNA encoding luciferase (Luc) or hEPO, wherein each uridine was replaced N1-methyl pseudouridine. Tables 1A-1E summarize the content and characteristics of the formulations.

[3] = Particle size and polydispersity index of nanoparticle compositions (Zetasizer Nano ZS); type: physicochemical
Procedure: A Zetasizer Nano ZS (Malvern Instruments Ltd, Malvern, Worcestershire, UK) can be used to determine the particle size, the polydispersity index (PDI) and the zeta potential of the nanoparticle compositions in 1×PBS in determining particle size and 15 mM PBS in determining zeta potential.
as §1

[4] = Table 1A, lipid:DSPC:cholesterol:PEG-DMG 50:10:38.5:1.5 mol %
[5] = Table 1B, formulated with hEPO mRNA

| SMILES | Total Flux, Liver [1] | Total Flux, Lung [1] | Total Flux, Spleen [1] | EE [2, 4] | Size [3, 4] | EE [2, 5] | Size [3, 5] |
| --- | --- | --- | --- | --- | --- | --- | --- |
| CCCCCCCCCN(CCCCCCCC(=O)OC(CCCCCCCC)CCCCCCCC)CCCn1ccnc1 [Compound 8, Heptadecan-9-yl 8-((3-(1H-imidazol-1-yl)propyl)(nonyl)amino)octanoate] | 7.87E+08 | 4.06E+06 | 1.51E+08 | 95.8% | 121.0 nm | – | – |
| CCCCCCCCCOC(=O)CCCCCCCN(CCC#N)CCCCCCCC(=O)OC(CCCCCCCC)CCCCCCCC [Compound 21, Heptadecan-9-yl 8-((2-cyanoethyl)(8-(nonyloxy)-8-oxooctyl)amino) octanoate] | – | – | – | −15.1% | 53.5 nm | – | – |
| CCCCCCCC/C=C\CCCCCCCCN(CCO)CCCCCCCC(=O)OC(CCCCCCCC)CCCCCCCC [Compound 31, heptadecan-9-yl (Z)-8-((2-hydroxyethyl)(octadec-9-en-1-yl)amino) octanoate] | 5.17E+09 | 7.55E+06 | 9.42E+07 | 95.11% | 73.9 nm | – | – |
| CCCCCCCCCOC(=O)CCCCCCCN(CCO)CCCCCCCC(=O)OC(CCCCCC)CCCCCCCC (stereo not drawn) [Compound 32, nonyl 8-((2-hydroxyethyl)(8-oxo-8-(pentadecan-7-yloxy)octyl)amino) octanoate] | 8.52E+09 | 1.16E+07 | 1.70E+08 | 94.87% | 105.6 nm | – | – |
| CCCCCCCCCOC(=O)CCCCCCCN(CCO)CCCCCCCC(=O)OC(CCCCC)CCCCCCCC (stereo not drawn) [Compound 33, nonyl 8-((2-hydroxyethyl)(8-oxo-8-(tetradecan-6-yloxy)octyl)amino) octanoate] | 1.78E+10 | 2.92E+07 | 3.77E+08 | 95.66% | 107.3 nm | – | – |
| CCCCCCCCCOC(=O)CCCCCCCN(CCO)CCCCCCCC(=O)OC(CCC)CCCCCCCC (stereo not drawn) [Compound 34, dodecan-4-yl 8-((2-hydroxyethyl)(8-(nonyloxy)-8-oxooctyl)amino) octanoate] | 2.08E+09 | 9.49E+06 | 2.40E+08 | 92.52% | 133.8 nm | – | – |
| CCCCCCCCC(CCCCCCCC)OC(=O)CCCCCCCN(CCO)CCCCCCCCC1CC1CCCCCCCC (stereo not drawn) [Compound 47, heptadecan-9-yl 8-((2-hydroxyethyl)(8-(2-octylyclopropyl)octyl)amino)octanoate] | 4.86E+09 | 8.71E+06 | 8.33E+07 | 96.40% | 80.6 nm | – | – |
| CCCCCCCCC(CCCCCCCC)OC(=O)CCCCCCCN(CCO)CCCC(=O)OCCCCC [Compound 52, heptadecan-9-yl 8-((2-hydroxyethyl)(4-oxo-4-(pentyloxy)butyl)amino) octanoate] | 5.86E+08 | 2.80E+06 | 8.30E+07 | 93.25% | 130.5 nm | – | – |
| CCCCCCCCC(CCCCCCCC)OC(=O)CCCCCCCN(CCO)CCCC(=O)OCCCCCC [Compound 53, heptadecan-9-yl 8-((4-(hexyloxy)-4-oxobutyl)(2-hydroxyethyl)amino) octanoate] | 2.02E+09 | 2.47E+07 | 8.54E+08 | 95.8% | 125.4 nm | – | – |
| CCCCCCCCC(CCCCCCCC)OC(=O)CCCCCCCN(CCO)CCCC(=O)OCCCCCCC [Compound 54, heptadecan-9-yl 8-((4-(heptyloxy)-4-oxobutyl)(2-hydroxyethyl)amino) octanoate] | 5.57E+09 | 1.12E+07 | 1.64E+08 | 96.71% | 112.9 nm | – | – |
| CCCCCCCCCOC(=O)CCCCCCCN(CCO)CCCCCCCC(=O)OC(CCCCCC)CCCCCC [Compound 56, nonyl 8-((2-hydroxyethyl)(8-oxo-8-(tridecan-7-yloxy)octyl)amino) octanoate] | 1.04E+09 | 4.62E+06 | 1.98E+08 | 95.18% | 112.1 nm | – | – |
| CCCCCCCCCOC(=O)CCCCCCCN(CCO)CCCCCCCC(=O)OC(CCCC)CCCC [Compound 57, nonan-5-yl 8-((2-hydroxyethyl)(8-(nonyloxy)-8-oxooctyl)amino) octanoate] | 9.36E+05 | 3.18E+04 | 2.47E+06 | 94.33% | 128.4 nm | – | – |
| CCCCCCCCCOC(=O)CCCCCCCN(CCO)CCCCCCCC(=O)OC(CCC)CCC [Compound 58, heptan-4-yl 8-((2-hydroxyethyl)(8-(nonyloxy)-8-oxooctyl)amino) octanoate] | 8.71E+04 | 1.21E+04 | 2.38E+05 | 92.54% | 130.8 nm | – | – |
| CCCCCCCCCOC(=O)CCCCCCCN(CCO)CCCCCCCC(=O)OC(CC)CC [Compound 59, nonyl 8-((2-hydroxyethyl)(8-oxo-8-(pentan-3-yloxy)octyl)amino) octanoate] | 2.87E+05 | 4.41E+04 | 9.68E+04 | 94.44% | – | – | – |
| CCCCCCCCCOC(=O)CCCCCCCN(CCCCCCCC(=O)OC(CCCCCCCC)CCCCCCCC)CCC(=O)O [Compound 125, 3-((8-(Heptadecan-9-yloxy)-8-oxooctyl)(8-(nonyloxy)-8-oxooctyl)amino)propanoic acid] | – | – | – | 79.6% | 90.9 nm | – | – |
| CCCCCCCCCOC(=O)CCCCCCCN(CCCCCCCC(=O)OC(CCCCCCCC)CCCCCCCC)CCCN(C)S(C)(=O)=O [Compound 173, Heptadecan-9-yl 8-((3-(N-methylmethylsulfonamido)propyl)(8-(nonyloxy)-8-oxooctyl)amino)octanoate] | – | – | – | 92.89% | 75.5 nm | – | – |
| CCCCCCCCCOC(=O)CCCCCCCN(CCCCCCCC(=O)OC(CCCCCCCC)CCCCCCCC)CCCOC(=O)NC [Compound 175, Heptadecan-9-yl 8-((3-((methylcarbamoyl)oxy)propyl)(8-(nonyloxy)-8-oxooctyl)amino)octanoate] | – | – | – | 94.8% | 65.7 nm | – | – |
| CCCCCCCCCOC(=O)CCCCCCCN(CCCCCCCC(=O)OC(CCCCCCCC)CCCCCCCC)CCCn1ccnn1 [Compound 179, Heptadecan-9-yl 8-((3-(1H-1,2,3-triazol-1-yl)propyl)(8-(nonyloxy)-8-oxooctyl)amino)octanoate] | – | – | – | 94.7% | 71.6 nm | – | – |
| CCCCCCCCC(CCCCCCCC)OC(=O)CCCCCCCN(CCO)CCCCCC(=O)OC(C)CCCCCCCCOC(C)=O (stereo not drawn) [Compound 235, Heptadecan-9-yl 8-((6-((10-acetoxydecan-2-yl)oxy)-6-oxohexyl)(2-hydroxyethyl)amino)octanoate] | – | – | – | – | – | 40.9% | 228 nm |
| CCCCCCCCCOC(=O)CCCCCCCN(CCCCCCCC(=O)OC(CCCCCCCC)CCCCCCCC)CCCC(N)=O [Compound 243, Heptadecan-9-yl 8-((4-amino-4-oxobutyl)(8-(nonyloxy)-8-oxooctyl)amino)octanoate] | – | – | – | – | – | 99.4% | 90.6 nm |

— patent publication US10857105B2, “Compounds and compositions for intracellular delivery of therapeutic agents” (ModernaTX, Inc., priority 2017, dated 2020)
